Reference: US4613695A, “N-nitroso compounds and compositions containing such compounds” (Aktiebolaget Leo, priority 1982, dated 1986)
Where two headings read alike, the source gives them in different places.

Legend:
[1] = system: Lymphatic leukemia L1210; assay: Lymphatic leukemia L1210 survival test (survival time increase, long term survival, cure potential); assay type: in vivo, Female BDF1 mice; settings: for Dose or dose range for cure: ≥90% long term survivors on day 60; for minimal effective dose: Mus musculus, L1210, po; for T.I.s (long term survival; max.effect.dose/min.effect.dose): long term survival T·100/To >20%; for T.I.s = max.effect.dose/min.effect.dose: survival time increase, t·100/c ≥125%; for median survival time percent of control: dose of 125 mg/kg, p.o., called significant activity
Experimental: The experimental design and interpretation of the results are in accordance with the standards set by the CCNSC (see reference (16)) and by the DR&D (see reference (17)).
Experimental animals: Female BDF1 mice
Tumour implants: 10^5 tumour cells implanted intraperitoneally (i. p.)
Therapy: The compounds were administered p. o. once on the day following the implantation.
Termination: The animals were killed on the 60th day after the implantation. Living animals on the 60th day are termed long term survivors.
(a) Evaluation of therapeutic dose range for survival time increase: Survival times at various dose levels are determined, and the survival time of the test animals (t) is expressed as the percentage of that of the control animals (c):
The maximum effective dose and the minimum effective dose required to achieve t·100/c≥125% are determined, and a therapeutic index as defined below is calculated:
T. I.s =max.effect.dose/min.effect.dose.
(b) Evaluation of therapeutic dose range for long term survival: Long time survival is determined at various dose levels and is expressed as surviving test animals on day 60 (T) as the percentage of that of the total number of test animals (To):
The maximum effective dose and the minimum effective dose to achieve long term survival T·100/To >20% are determined and a therapeutic index, T. I.1 s is calculated:
T. I.1s =max.effect.dose/min.effect.dose.
(c) Evaluation of cure potential: The normal survival time for test animals receiving no therapeutic treatment is 9-11 days. Surviving test animals on the 60th day after implantation showing no sign of tumour presence are regarded as cured animals. Long term survival is determined as under (b) above, and the effective dose or dose range to achieve a long term survival T·100/To ≥90% is determined as an evaluation of the cure potential.

[2] = system: Walker carcinosarcoma 256; assay: Walker carcinosarcoma 256 tumour growth inhibition (single p.o. dose); assay type: in vivo, Female Sprague Dawley rats; settings: for ED50: Rattus norvegicus; for activity in the foregoing test (Walker carcinosarcoma 256): dose of 8 mg/kg, preliminary experiments
Text: (§1) A therapeutic index is an indication of the therapeutic usefulness of a compound, and such an index may be defined in various ways. One type of therapeutic index commonly used is the ratio LD50/ED50, wherein LD50 is the dose that causes a 50 percent lethality, and ED50 is the dose that causes a 50 percent reduction of tumour size. Another type of therapeutic index, useful in evaluation of increasing survival time, is the ratio between maximum and minimum effective dose. Both these types of therapeutic indexes are used and given in the experimental results below.
(§2) The manner of administration of the compounds is by the oral (p. o.) route in each case.
(§3) Experimental animals: Female Sprague Dawley rats
(§4) Tumour implants: Tumour pieces with 2-3 mm diameter, implanted subcutaneously
(§5) Therapy: The compound is administered p. o. once on the day after the implantation
Termination: The animals are killed on the 9th day after implantation
(§6) Evaluation: Weight of tumour is determined in test animals and compared with those of control animals. For each compound the LD50 and ED50 dose (as defined above) are determined. The therapeutic index, T. I., (LD50/ED50) is calculated.

[3] = in vivo; settings: rat, po
Text: as §1, §2, §3, §4, §5, §6

[4] = >20% long term survivors on day 60, p.o. once
[5] = median survival time percent of control ≥ 125%, p.o. once, read-out: Minimum effective dose (survival time increase)
[6] = median survival time percent of control ≥ 125%, p.o. once
[7] = 1440 h, >20% long term survivors on day 60, p.o. once, read-out: Minimum effective dose (long term survival)
[8] = po, dose that causes a 50 percent reduction of tumour size, p.o. once, read-out: ED50
[9] = therapeutic index LD50/ED50, p.o.

Compound	Dose or dose range for cure ([1]; p.o. once)	minimal effective dose [1, 5]	T.I.s (long term survival; max.effect.dose/min.effect.dose) [1]	Maximum effective dose (survival time increase) [1, 6]	T.I.s = max.effect.dose/min.effect.dose [1]	minimal effective dose [1, 7]	other results
O=NN(CCCl)C(=O)NCCS(=O)(=O)N(CCO)CCO [1:12, 3-(2-/bis(2-hydroxyethyl)aminosulfonyl/ethyl)-1-(2-chloroethyl)-1-nitrosourea]	125 mg/kg						
CC1CCC(NC(=O)N(CCCl)N=O)CC1 (stereo not shown) [Methyl-CCNU, 1-(2-chloroethyl)-3-(4-methyl-cyclohexyl)-1-nitrosourea, reference compound]		8 mg/kg	none	31 mg/kg	4		Maximum effective dose (long term survival) [1, 4]: none; Minimum effective dose (long term survival) [1, 4]: none
CN(Cc1ccccc1)S(=O)(=O)CCNC(=O)N(CCCl)N=O [1:17, 3-(2-/N-benzyl-N-methylaminosulfonyl/ethyl)-1-(2-chloroethyl)-1-nitrosourea]		63 mg/kg	2	500 mg/kg	8	125 mg/kg	
CN(C)S(=O)(=O)CCNC(=O)N(CCCl)N=O [1:1, 1-(2-chloroethyl)-3-/2-(dimethylaminosulfonyl)ethyl/-1-nitrosourea]	31 to 63 mg/kg	8 mg/kg	2	63 mg/kg	8	31 mg/kg	ED50 [2, 8]: 0.25 mg/kg; T.I. LD50/ED50 [2, 9]: 200; LD50 [3]: 50 mg/kg
COCCN(CCS(=O)(=O)N(C)C)C(=O)N(CCCl)N=O [1:48, 1-(2-chloroethyl)-3-(2-methoxyethyl)-3-/2-(dimethylaminosulfonyl)ethyl/-1-nitrosourea]							activity in the foregoing test (Walker carcinosarcoma 256) ([2]; p.o.): significant activity
CN(CCO)S(=O)(=O)CCNC(=O)N(CCCl)N=O [1:15, 1-(2-chloroethyl)-3-(2-/N-2-hydroxyethyl-N-methyl-aminosulfonyl/ethyl)-1-nitrosourea]	63 mg/kg	16 mg/kg	4	125 mg/kg	8	31 mg/kg	ED50 [2, 8]: 0.6 mg/kg; T.I. LD50/ED50 ([2]; rat, in vivo, po): 150; LD50 [3]: 90 mg/kg
CC(C)(CO)NS(=O)(=O)CCNC(=O)N(CCCl)N=O [1:16, 1-(2-chloroethyl)-3-(2-/1,1-dimethyl-2-hydroxyethylaminosulfonyl/ethyl)-1-nitrosourea]	250 mg/kg						
CON(C)S(=O)(=O)CCNC(=O)N(CCCl)N=O [1:20, 1-(2-chloroethyl)-3-(2-/N-methoxy-N-methylaminosulfonyl/ethyl)-1-nitrosourea]	63 to 125 mg/kg	16 mg/kg	2	125 mg/kg	8	63 mg/kg	
CCN(C)S(=O)(=O)CCNC(=O)N(CCCl)N=O [1:52, 1-(2-chloroethyl)-3-(2-/N-ethyl-N-methylaminosulfonyl/ethyl)-1-nitrosourea]			2			31 mg/kg	activity in the foregoing test (Walker carcinosarcoma 256) ([2]; p.o.): significant activity
CN(C)S(=O)(=O)CCCNC(=O)N(CCCl)N=O [1:21, 1-(2-chloroethyl)-3-(3-/dimethylaminosulfonyl/propyl)-1-nitrosourea]	31 to 63 mg/kg	8 mg/kg	2	63 mg/kg	8	31 mg/kg	
CN(C1CCCCC1)S(=O)(=O)CCNC(=O)N(CCCl)N=O [1:28, 1-(2-chloroethyl)-3-(2-/N-cyclohexyl-N-methylaminosulfonyl/ethyl)-1-nitrosourea]	125 mg/kg	31 mg/kg	2	250 mg/kg	8	125 mg/kg	ED50 [2, 8]: 2.5 mg/kg; T.I. LD50/ED50 [2, 9]: > 100; LD50 [3]: > 250 mg/kg
O=NN(CCCl)C(=O)NCCS(=O)(=O)NCc1ccccc1 [1:7, 3-(2-/benzylaminosulfonyl/ethyl)-1-(2-chloroethyl)-1-nitrosourea]			2			125 mg/kg	ED50 [2, 8]: 2 mg/kg; T.I. LD50/ED50 [2, 9]: 125; LD50 [3]: 250 mg/kg
O=NN(CCCl)C(=O)NCCS(=O)(=O)NC1CCCCC1 [1:11, 1-(2-chloroethyl)-3-(2-/cyclohexylaminosulfonyl/ethyl)-1-nitrosourea]	125 mg/kg	31 mg/kg	2	250 mg/kg	8	63 mg/kg	
CCCCNS(=O)(=O)CCNC(=O)N(CCCl)N=O [1:9, 3-(2-/butylaminosulfonyl/ethyl)-1-(2-chloroethyl)-1-nitrosourea]	63 mg/kg	16 mg/kg	2	125 mg/kg	8	63 mg/kg	
CC(C)(C)NS(=O)(=O)CCNC(=O)N(CCCl)N=O [1:10, 3-(2-/t-butylaminosulfonyl/ethyl)-1-(2-chloroethyl)-1-nitrosourea]							median survival time percent of control [1]: ≥ 125%
O=NN(CCCl)C(=O)NC1CCCCC1 [CCNU, 1-(2-chloroethyl)-3-cyclohexyl-1-nitrosourea, reference compound]							ED50 [2, 8]: 1 mg/kg; T.I. LD50/ED50 [2, 9]: 90; LD50 [3]: 90 mg/kg
COCCNS(=O)(=O)CCNC(=O)N(CCCl)N=O [1:8, 1-(2-chloroethyl)-3-(2-/2-methoxyethylaminosulfonyl/ethyl)-1-nitrosourea]	31 to 63 mg/kg		2			31 mg/kg	
CCCN(CC)S(=O)(=O)CCNC(=O)N(CCCl)N=O [1:53, 1-(2-chloroethyl)-3-(2-/N-ethyl-N-propylaminosulfonyl/ethyl)-1-nitrosourea]	125 to 150 mg/kg	31 mg/kg	2	500 mg/kg	16	125 mg/kg	ED50 [2, 8]: 1.7 mg/kg
CN(C)S(=O)(=O)CCNS(=O)(=O)CCNC(=O)N(CCCl)N=O [1:23, 1-(2-chloroethyl)-3-(2-/2-(dimethylaminosulfonyl)ethylaminosulfonyl/ethyl)-1-nitrosourea]	125 mg/kg		2			63 mg/kg	
CN(c1ccccc1)S(=O)(=O)CCNC(=O)N(CCCl)N=O [1:18, 1-(2-chloroethyl)-3-(2-/N-methyl-N-phenylaminosulfonyl/ethyl)-1-nitrosourea]							median survival time percent of control [1]: ≥ 125%
O=P1(N(CCCl)CCCl)NCCCO1 (stereo not shown) [Cyclophosphamide, reference compound]							ED50 ([2]; po): 6 mg/kg; T.I. LD50/ED50 [2, 9]: 30; LD50 [3]: 180 mg/kg
CCCCC(C)NS(=O)(=O)CCNC(=O)N(CCCl)N=O (stereo not shown) [1:13, 1-(2-chloroethyl)-3-(2-/1-methylpentylaminosulfonyl/ethyl)-1nitrosourea]							median survival time percent of control [1]: ≥ 125%
CCN(CCS(=O)(=O)N(C)C)C(=O)N(CCCl)N=O [1:54, 1-(2-chloroethyl)-3-(2-/dimethylaminosulfonyl/ethyl)-3-ethyl-1-nitrosourea]							activity in the foregoing test (Walker carcinosarcoma 256) ([2]; p.o.): significant activity; median survival time percent of control [1]: ≥ 125%
